Article PMC7211198, “Phase 1b study of a small molecule antagonist of human chemokine (C-C motif) receptor 2 (PF-04136309) in combination with nab-paclitaxel/gemcitabine in first-line treatment of metastatic pancreatic ductal adenocarcinoma” (Investigational New Drugs, 2019)

Experiment: Safety and tolerability (TEAEs, SAEs, DLTs, RP2D) in phase Ib study
Format: in vivo, human
From the text: Safety assessments included collection of adverse events (AEs), serious AEs (SAEs), vital signs and physical examination, electrocardiogram (12-lead), laboratory assessments, including pregnancy test, and verification of concomitant treatments. A patient was considered as DLT-evaluable if the patient experienced a DLT or if otherwise, in the absence of a DLT, the patient received at least 85% of the planned doses of each study drug in the first 28-day cycle. DLTs were defined as any of the following events occurring in the first cycle of treatment (days 1 through 28) and attributed (i.e., judged to be at least possibly related) to the combination of PF-04136309 plus nab-paclitaxel/gemcitabine, where relationship with the combination could not be ruled out. DLTs were hematologic events of grade 4 neutropenia lasting >5 days; febrile neutropenia; grade ≥ 3 neutropenic infection; grade ≥ 3 thrombocytopenia with grade ≥ 2 bleeding; grade 4 thrombocytopenia; and nonhematologic events of grade 3 toxicities. Exceptions included nausea and vomiting responding to prophylaxis and/or treatment and lasting <7 days from each chemotherapy infusion period; diarrhea responding to treatment and lasting <7 days; grade 3 fatigue lasting <7 days; grade 3 QT interval corrected for heart rate prolongation (>500 msec) persisting after correction of any reversible causes; and/or grade 3 aspartate aminotransferase (AST) and/or alanine aminotransferase (ALT) increase lasting ≤7 days. All grade 4 toxicities and a delay of >2 weeks in receiving the next scheduled cycle due to persistent treatment-related toxicities were considered DLTs. AEs meeting DLT criteria in the dose-expansion phase included grade 3 events of diarrhea, hypokalemia, and dysesthesia and grade 4 hypoxia. […] AEs were graded according to the National Cancer Institute Common Terminology Criteria for Adverse Events, version 4.03.

[1] = 500 mg BID + nab-P/Gem, treatment-related SAE
[2] = 750 mg BID + nab-P/Gem, n = 4, treatment-related TEAE
[3] = 750 mg BID + nab-P/Gem, all-causality SAE
[4] = 750 mg BID + nab-P/Gem, all-causality TEAE

O=C(NCC(=O)N1CC[C@H](N[C@H]2CC[C@@](O)(c3ccc(-c4ncccn4)cn3)CC2)C1)c1cccc(C(F)(F)F)c1 [PF-04136309]
Any SAE, Grade 3 [1]: 3 (17.6) n (%) | Any SAE, Grade 4 [1]: 1 (5.9) n (%) | Any SAE, Grade 5 [1]: 1 (5.9) n (%) | Any SAE, Total [1]: 5 (29.4) n (%) | Hypoxia, Grade 1 [1]: 0 n (%) | Hypoxia, Grade 2 [1]: 0 n (%) | Hypoxia, Grade 3 [1]: 0 n (%) | Hypoxia, Grade 4 [1]: 1 (5.9) n (%) | Hypoxia, Grade 5 [1]: 0 n (%) | Hypoxia, Total [1]: 1 (5.9) n (%) | Pneumonia, Grade 1 [1]: 0 n (%) | Pneumonia, Grade 2 [1]: 0 n (%) | Pneumonia, Grade 3 [1]: 0 n (%) | Pneumonia, Grade 4 [1]: 0 n (%) | Pneumonia, Grade 5 [1]: 1 (5.9) n (%) | Pneumonia, Total [1]: 1 (5.9) n (%) | Pneumonitis, Grade 1 [1]: 0 n (%) | Pneumonitis, Grade 2 [1]: 0 n (%) | Pneumonitis, Grade 3 [1]: 3 (17.6) n (%) | Pneumonitis, Grade 4 [1]: 0 n (%) | Pneumonitis, Grade 5 [1]: 0 n (%) | Pneumonitis, Total [1]: 3 (17.6) n (%) | Pyrexia, Grade 1 [1]: 0 n (%) | Pyrexia, Grade 2 [1]: 1 (5.9) n (%) | Pyrexia, Grade 3 [1]: 0 n (%) | Pyrexia, Grade 4 [1]: 0 n (%) | Pyrexia, Grade 5 [1]: 0 n (%) | Pyrexia, Total [1]: 1 (5.9) n (%) | DLT events (500 mg BID starting dose, three of 17 patients, four DLTs): grade 3 dysesthesia, diarrhea, and hypokalemia and one event of grade 4 hypoxia | DLT (750 mg BID + nab-P/Gem, n = 4, first cycle (days 1 through 28)): 1 (25) n (%) | ALT increase, grade ≥3 [2]: 1 (25.0) n (%) | AST increase, grade ≥3 [2]: 1 (25.0) n (%) | Anemia, grade ≥3 [2]: 0 n (%) | Fatigue, grade ≥3 [2]: 0 n (%) | Leukopenia, grade ≥3 [2]: 3 (75.0) n (%) | Lymphopenia, grade ≥3 [2]: 1 (25.0) n (%) | Neutropenia, grade ≥3 [2]: 3 (75.0) n (%) | Pneumonitis, grade ≥3 [2]: 0 n (%) | Any SAE, Grade 1 [3]: 0 n (%) | Any SAE, Grade 2 [3]: 1 (25.0) n (%) | Any SAE, Grade 3 [3]: 2 (50.0) n (%) | Any SAE, Grade 4 [3]: 0 n (%) | Any SAE, Grade 5 [3]: 0 n (%) | Any SAE, Total [3]: 3 (75.0) n (%) | Appetite decrease, Grade 1 [3]: 0 n (%) | Appetite decrease, Grade 2 [3]: 0 n (%) | Appetite decrease, Grade 3 [3]: 1 (25.0) n (%) | Appetite decrease, Grade 4 [3]: 0 n (%) | Appetite decrease, Grade 5 [3]: 0 n (%) | Appetite decrease, Total [3]: 1 (25.0) n (%) | Cellulitis, Grade 1 [3]: 0 n (%) | Cellulitis, Grade 2 [3]: 0 n (%) | Cellulitis, Grade 3 [3]: 1 (25.0) n (%) | Cellulitis, Grade 4 [3]: 0 n (%) | Cellulitis, Grade 5 [3]: 0 n (%) | Cellulitis, Total [3]: 1 (25.0) n (%) | Cognitive disorder, Grade 1 [3]: 0 n (%) | Cognitive disorder, Grade 2 [3]: 0 n (%) | Cognitive disorder, Grade 3 [3]: 1 (25.0) n (%) | Cognitive disorder, Grade 5 [3]: 0 n (%) | Cognitive disorder, Total [3]: 1 (25.0) n (%) | Gastroesophageal reflux disease, Grade 1 [3]: 0 n (%) | Gastroesophageal reflux disease, Grade 2 [3]: 0 n (%) | Gastroesophageal reflux disease, Grade 3 [3]: 1 (25.0) n (%) | Gastroesophageal reflux disease, Grade 4 [3]: 0 n (%) | Gastroesophageal reflux disease, Grade 5 [3]: 0 n (%) | Gastroesophageal reflux disease, Total [3]: 1 (25.0) n (%) | Rash, Grade 1 [3]: 0 n (%) | Rash, Grade 2 [3]: 1 (25.0) n (%) | Rash, Grade 3 [3]: 0 n (%) | Rash, Grade 4 [3]: 0 n (%) | Rash, Grade 5 [3]: 0 n (%) | Rash, Total [3]: 1 (25.0) n (%) | ALT increase, Grade 1 [4]: 0 n (%) | ALT increase, Grade 2 [4]: 2 (50.0) n (%) | ALT increase, Grade 3 [4]: 1 (25.0) n (%) | ALT increase, Grade 4 [4]: 0 n (%) | ALT increase, Grade 5 [4]: 0 n (%) | ALT increase, Total [4]: 3 (75.0) n (%) | Alopecia, Grade 1 [4]: 2 (50.0) n (%) | Alopecia, Grade 2 [4]: 1 (25.0) n (%) | Alopecia, Grade 3 [4]: 0 n (%) | Alopecia, Grade 4 [4]: 0 n (%) | Alopecia, Grade 5 [4]: 0 n (%) | Alopecia, Total [4]: 3 (75.0) n (%) | Anemia, Grade 1 [4]: 0 n (%) | Anemia, Grade 2 [4]: 2 (50.0) n (%) | Anemia, Grade 3 [4]: 0 n (%) | Anemia, Grade 4 [4]: 0 n (%) | Anemia, Grade 5 [4]: 0 n (%) | Anemia, Total [4]: 2 (50.0) n (%) | Any AE, Grade 1 [4]: 0 n (%) | Any AE, Grade 2 [4]: 0 n (%) | Any AE, Grade 3 [4]: 4 (100.0) n (%) | Any AE, Grade 4 [4]: 0 n (%) | Any AE, Grade 5 [4]: 0 n (%) | Any AE, Total [4]: 4 (100.0) n (%) | Appetite decrease, Grade 1 [4]: 1 (25.0) n (%) | Appetite decrease, Grade 2 [4]: 0 n (%) | Appetite decrease, Grade 3 [4]: 1 (25.0) n (%) | Appetite decrease, Grade 4 [4]: 0 n (%) | Appetite decrease, Grade 5 [4]: 0 n (%) | Appetite decrease, Total [4]: 2 (50.0) n (%) | Cellulitis, Grade 1 [4]: 0 n (%) | Cellulitis, Grade 2 [4]: 1 (25.0) n (%) | Cellulitis, Grade 3 [4]: 1 (25.0) n (%) | Cellulitis, Grade 4 [4]: 0 n (%) | Cellulitis, Grade 5 [4]: 0 n (%) | Cellulitis, Total [4]: 2 (50.0) n (%) | Chills, Grade 1 [4]: 2 (50.0) n (%) | Chills, Grade 2 [4]: 0 n (%) | Chills, Grade 3 [4]: 0 n (%) | Chills, Grade 4 [4]: 0 n (%)
